Source: patent publication US20230167073A1 (Teijin Pharma Limited, priority 2020, published 2023)

The compounds below were run against T1, Human TRPC6 (Homo sapiens, UniProt Q9Y210) (assay: Evaluation of TRPC6 channel inhibitory activity (1), FLIPR Calcium 5 Assay Kit, OAG stimulation (Compound Nos. 1-1293)). Conditions: not given.
T1 construct: expressed in transfected cells
T1 sequence (Q9Y210 1-931): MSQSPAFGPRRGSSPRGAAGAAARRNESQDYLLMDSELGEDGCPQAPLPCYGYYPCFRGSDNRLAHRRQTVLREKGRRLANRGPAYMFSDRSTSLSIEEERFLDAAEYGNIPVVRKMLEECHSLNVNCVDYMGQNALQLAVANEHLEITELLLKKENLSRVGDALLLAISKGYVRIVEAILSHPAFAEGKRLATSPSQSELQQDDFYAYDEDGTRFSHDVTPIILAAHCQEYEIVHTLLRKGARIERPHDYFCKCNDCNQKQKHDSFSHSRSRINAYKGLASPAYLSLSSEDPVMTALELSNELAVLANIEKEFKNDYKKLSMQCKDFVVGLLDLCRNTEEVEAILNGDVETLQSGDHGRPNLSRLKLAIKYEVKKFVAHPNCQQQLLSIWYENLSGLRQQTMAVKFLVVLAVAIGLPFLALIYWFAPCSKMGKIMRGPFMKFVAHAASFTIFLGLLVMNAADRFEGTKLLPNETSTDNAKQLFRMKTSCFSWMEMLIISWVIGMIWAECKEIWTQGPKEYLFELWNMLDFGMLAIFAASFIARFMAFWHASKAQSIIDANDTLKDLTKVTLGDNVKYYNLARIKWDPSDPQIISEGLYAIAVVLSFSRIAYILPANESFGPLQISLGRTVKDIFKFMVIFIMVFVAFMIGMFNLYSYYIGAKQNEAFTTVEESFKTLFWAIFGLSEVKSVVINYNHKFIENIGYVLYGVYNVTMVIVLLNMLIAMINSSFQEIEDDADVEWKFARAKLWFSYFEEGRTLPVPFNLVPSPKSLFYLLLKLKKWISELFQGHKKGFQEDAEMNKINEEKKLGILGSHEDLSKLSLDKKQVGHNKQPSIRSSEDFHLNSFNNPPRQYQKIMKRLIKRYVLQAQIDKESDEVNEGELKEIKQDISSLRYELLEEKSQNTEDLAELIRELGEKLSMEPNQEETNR
Format: cell-based
Protocol: Evaluation of TRPC6 Channel Inhibitory Activity (1) (Compound Nos. 1-1293)
In order to investigate TRPC6 channel inhibitory activity of the compounds, evaluation was conducted using FLIPR® Calcium 5 Assay Kit (Molecular Devices) in accordance with the following procedure. Human TRPC6 stably-expressing cells were seeded in a 384-well black clear bottom plate at a density of 5×10^3/well and cultured in an incubator at 37° C. 5% CO2 for 24 hours. Thereafter, 25 μL of a Non Wash Dye Solution, prepared using Component A, 20 mM HEPES-HBSS and 250 mM probenecid, all of which are included in the kit, was added to each well, and the plate was incubated for 30 minutes. A volume of 12.5 μL of a compound solution was added into each well while the fluorescence was measured with FLIPR tetra. After 20 minutes, 12.5 μL of a 1-oleoyl-2-acetyl glycerol (OAG) solution was added at a final concentration of 30 μM. The difference between the minimum fluorescence intensity before the addition of the compound and the maximum fluorescence intensity after the addition of OAG was defined as a signal. An inhibition rate was calculated, assuming the average signal of wells without the compound as the inhibition rate of 0% and the average signal of wells without the compound and OAG as the inhibition rate of 100%. The calculated inhibition rate was analyzed by a four-parameter logistic regression to quantify the inhibition rate in the logarithm of the inverse of the effective concentration which gives a 50% inhibition rate (pIC50). The intensity was expressed by the following symbols (+, ++, +++).
For `Cc1cc(Oc2cc(C#N)ccc2-c2ccc([C@H](O)CN)cn2)cc(N2C3CCC2COC3)n1` [compound 446, 4-[5-[(1S)-2-amino-1-hydroxyethyl]pyridin-2-yl]-3-[2-methyl-6-(3-oxa-8-azabicyclo[3.2.1]octan-8-yl)pyridin-4-yl]oxybenzonitrile], the IC50 was under 10 nM.
`N#Cc1ccc(-c2ncc(CCN)cn2)c(Oc2ccc(N3C4CCC3CC4)nc2)c1` [compound 752, 4-[5-(2-aminoethyl)pyrimidin-2-yl]-3-[6-(7-azabicyclo[2.2.1]heptan-7-yl)pyridin-3-yl]oxybenzonitrile] was tested, and the IC50 was 10 to 1000 nM.

Same assay, conditions: Human TRPC6 stably-expressing cells, OAG 30 μM, FLIPR Calcium 5 Assay Kit; read-out: Inhibitory activity (pIC50 class) (converted)
In the case of `CC(C)CN(C)c1cc(Oc2cc(C#N)ccc2-c2ncc(CCN)cn2)n(C)n1` [compound 758, 4-[5-(2-aminoethyl)pyrimidin-2-yl]-3-[2-methyl-5-[methyl(2-methylpropyl)amino]pyrazol-3-yl]oxybenzonitrile], the IC50 is reported as under 10 nM.
`N#Cc1ccc(-c2ncc(CCN)cn2)c(C(=O)c2cnc(N3CCOCC3)o2)c1` [compound 1084, 4-[5-(2-aminoethyl)pyrimidin-2-yl]-3-(2-morpholin-4-yl-1,3-oxazole-5-carbonyl)benzonitrile] was tested, and the IC50 was 10 to 1000 nM.
With `Cn1nc(C(F)(F)F)cc1Oc1cc(C#N)ccc1-c1ccc(CCN)cn1` [Compound 264, 4-[5-(2-aminoethyl)pyridin-2-yl]-3-[2-methyl-5-(trifluoromethyl)pyrazol-3-yl]oxybenzonitrile] the IC50 was under 10 nM.
`CC(C)Cn1cc(Oc2cc(C#N)ccc2-c2ncc(CCN)cn2)cn1` [compound 907, 4-[5-(2-aminoethyl)pyrimidin-2-yl]-3-[1-(2-methylpropyl)pyrazol-4-yl]oxybenzonitrile] showed an IC50 of under 10 nM.
Compound `Cn1nc(Br)cc1Oc1cc(C#N)ccc1-c1ncc(CN)cn1` [compound 929, 4-[5-(aminomethyl)pyrimidin-2-yl]-3-(5-bromo-2-methylpyrazol-3-yl)oxybenzonitrile] has an IC50 of over 1000 nM.
Work on `Cc1cc(Oc2nc(C#N)ccc2-c2ccc(CCN)cn2)cc(N2CCOCC2)n1` [compound 1284, 5-[5-(2-aminoethyl)pyridin-2-yl]-6-(2-methyl-6-morpholin-4-ylpyridin-4-yl)oxypyridine-2-carbonitrile] yielded an IC50 of 10 to 1000 nM.
For `N#Cc1ccc(-c2ncc(CN)cn2)c(Oc2ccc(N3CCCC3)nc2)c1` [compound 751, 4-[5-(aminomethyl)pyrimidin-2-yl]-3-(6-pyrrolidin-1-ylpyridin-3-yl)oxybenzonitrile], the IC50 was over 1000 nM.
`Cn1nc(-c2ccncn2)cc1Oc1cc(C#N)ccc1-c1ncc(CCN)cn1` [compound 949, 4-[5-(2-aminoethyl)pyrimidin-2-yl]-3-(2-methyl-5-pyrimidin-4-ylpyrazol-3-yl)oxybenzonitrile] was tested, and the IC50 was under 10 nM.
`COc1cc(-c2ccc(C#N)cc2Oc2cc(N3CCOCC3)nc(C)n2)ccc1C(O)CN` (centres unmarked) [Compound 156, 4-[4-(2-amino-1-hydroxyethyl)-3-methoxyphenyl]-3-(2-methyl-6-morpholin-4-ylpyrimidin-4-yl)oxybenzonitrile] was tested, and the IC50 was 10 to 1000 nM.
`Cc1nc(OCC2CCCCC2)cc(Oc2cc(C#N)ccc2-c2ccc(CCN)cc2)n1` [Compound 39, 4-[4-(2-aminoethyl)phenyl]-3-[6-(cyclohexylmethoxy)-2-methylpyrimidin-4-yl]oxybenzonitrile] was tested, and the IC50 was over 1000 nM.
Compound `N#Cc1ccc(-c2ncc(CN)cn2)c(Oc2nnc(-c3ccccn3)s2)c1` [compound 699, 4-[5-(aminomethyl)pyrimidin-2-yl]-3-[(5-pyridin-2-yl-1,3,4-thiadiazol-2-yl)oxy]benzonitrile] has an IC50 of over 1000 nM.
In the case of `CC(C)n1nc(-c2ccccc2)cc1Oc1cc(C#N)ccc1-c1ncc(CCN)cn1` [compound 381, 4-[5-(2-aminoethyl)pyrimidin-2-yl]-3-(5-phenyl-2-propan-2-ylpyrazol-3-yl)oxybenzonitrile], the IC50 is reported as under 10 nM.
For `Cc1nc(Oc2cc(C#N)ccc2-c2ccc([C@H](O)CN)cn2)cc(N2CCOC(C)(C)C2)n1` [compound 560, 4-[5-[(1S)-2-amino-1-hydroxyethyl]pyridin-2-yl]-3-[6-(2,2-dimethylmorpholin-4-yl)-2-methylpyrimidin-4-yl]oxybenzonitrile], the IC50 was 10 to 1000 nM.
In the case of `CN(CC(F)F)c1cc(Oc2cc(C#N)ccc2-c2ncc(CN)cn2)n(C)n1` [compound 873, 4-[5-(aminomethyl)pyrimidin-2-yl]-3-[5-[2,2-difluoroethyl(methyl)amino]-2-methylpyrazol-3-yl]oxybenzonitrile], the IC50 is reported as under 10 nM.
Work on `Cc1cc(Oc2cc(C#N)ccc2-c2cc(CCN)ccn2)cc(N2CCOCC2)n1` [compound 638, 4-[4-(2-aminoethyl)pyridin-2-yl]-3-(2-methyl-6-morpholin-4-ylpyridin-4-yl)oxybenzonitrile] yielded an IC50 of 10 to 1000 nM.
`Cn1nc(-c2cncs2)cc1Oc1cc(C#N)ccc1-c1ncc(CCN)cn1` [compound 951, 4-[5-(2-aminoethyl)pyrimidin-2-yl]-3-[2-methyl-5-(1,3-thiazol-5-yl)pyrazol-3-yl]oxybenzonitrile] gave an IC50 of under 10 nM.
`CCCc1cc(Oc2cc(C#N)ccc2-c2ncc(CN)cn2)n(C)n1` [compound 363, 4-[5-(aminomethyl)pyrimidin-2-yl]-3-(2-methyl-5-propylpyrazol-3-yl)oxybenzonitrile] showed an IC50 of under 10 nM.
`Cc1cc(Oc2cc(C#N)ccc2-c2ncc(CCN)cn2)cc(-c2ccccn2)n1` [compound 371, 4-[5-(2-aminoethyl)pyrimidin-2-yl]-3-(2-methyl-6-pyridin-2-ylpyridin-4-yl)oxybenzonitrile] gave an IC50 of under 10 nM.
Work on `Cc1nc(OCCC(C)C)cc(Oc2cc(C#N)ccc2-c2ccc(CCN)cc2)n1` [Compound 41, 4-[4-(2-aminoethyl)phenyl]-3-[2-methyl-6-(3-methylbutoxy)pyrimidin-4-yl]oxybenzonitrile] yielded an IC50 of over 1000 nM.
With `Cc1nc(Oc2cc(C#N)ccc2-c2ccc(C(=O)CN)cc2)cc(N2CCOCC2)n1` [Compound 8, 4-[4-(2-aminoacetyl)phenyl]-3-(2-methyl-6-morpholin-4-ylpyrimidin-4-yl)oxybenzonitrile] the IC50 was over 1000 nM.
`Cc1nc(Oc2cc(C#N)ccc2-c2ncc(CCN)cn2)cc(N2CCC2=O)n1` [compound 855, 4-[5-(2-aminoethyl)pyrimidin-2-yl]-3-[2-methyl-6-(2-oxoazetidin-1-yl)pyrimidin-4-yl]oxybenzonitrile] showed an IC50 of 10 to 1000 nM.
`Cc1cc(Oc2cc(C#N)ccc2-c2ncc(CCN)cn2)cc(N2CCOC[C@H]2C)n1` [compound 470, 4-[5-(2-aminoethyl)pyrimidin-2-yl]-3-[2-methyl-6-[(3R)-3-methylmorpholin-4-yl]pyridin-4-yl]oxybenzonitrile] gave an IC50 of under 10 nM.
Work on `Cc1nnc(-c2cc(Oc3cc(C#N)ccc3-c3ncc(CN)cn3)n(C)n2)s1` [compound 961, 4-[5-(aminomethyl)pyrimidin-2-yl]-3-[2-methyl-5-(5-methyl-1,3,4-thiadiazol-2-yl)pyrazol-3-yl]oxybenzonitrile] yielded an IC50 of over 1000 nM.
`Cc1cc(Oc2cc(C#N)ccc2-n2cc(C(O)CN)cn2)cc(N2CCOCC2)n1` (centres unmarked) [Compound 241, 4-[4-(2-amino-1-hydroxyethyl)pyrazol-1-yl]-3-(2-methyl-6-morpholin-4-ylpyridin-4-yl)oxybenzonitrile] was tested, and the IC50 was under 10 nM.
Compound `N#Cc1ccc(-c2ncc(CCN)cn2)c(Cn2ncc(-c3ccccc3)n2)c1` [compound 1169, 4-[5-(2-aminoethyl)pyrimidin-2-yl]-3-[(4-phenyltriazol-2-yl)methyl]benzonitrile] has an IC50 of over 1000 nM.
With `Cc1cc(Oc2cc(C#N)ccc2-c2ncc(CCN)cn2)cc(NC(C)C)n1` [compound 461, 4-[5-(2-aminoethyl)pyrimidin-2-yl]-3-[2-methyl-6-(propan-2-ylamino)pyridin-4-yl]oxybenzonitrile] the IC50 was under 10 nM.
Work on `Cn1nc(N2CCOCC2)cc1Oc1cc(C#N)ccc1-c1ncc(CN)cn1` [compound 772, 4-[5-(aminomethyl)pyrimidin-2-yl]-3-(2-methyl-5-morpholin-4-ylpyrazol-3-yl)oxybenzonitrile] yielded an IC50 of under 10 nM.
